Among the test systems are K562; HOP-92; Hs-578T; HL-60; T47D; NCI-H522; SW-620; OVCAR-5; UACC-62; U-251; CCRF-CEM; HCC 2998; EKVX; OVCAR-8; HCT-15; KM12; SK-MEL-28; MDA-MB-435; A498; NCI/ADR-RES.
What all share (assay): NCI tumour cell line growth inhibition, 48 h

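1) Cells in 96-well plates. 2) Compound, 48 h, 5 concentrations. 3) Linear interpolation between surrounding doses. 4) Unreached endpoint = highest concentration. Here, GI50 denotes the concentration required for 50% inhibition of growth.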 Calls of active or inactive are those of the source. No stated cut-off is given here; in the data, active = GI50 up to about 1.1 µM and inactive = higher.

Regarding `O=C(c1ccc(Cl)cc1)c1cnc(Nc2ccccc2Cl)s1`, the GI50 in the experiment with K562 was > 100 µM (inactive); in the experiment on HOP-92 it was 27.2 µM (inactive); in the experiment on Hs-578T, 32.4 µM (inactive); in the experiment with HL-60, > 100 µM (inactive); with T47D it was 19.3 µM (inactive); with NCI-H522, 23 µM (inactive). Besides, the GI50 with SW-620 is 40.1 µM (inactive); with OVCAR-5, 29.8 µM (inactive); with UACC-62, 21.5 µM (inactive); with U-251, 28.1 µM (inactive); in the experiment on CCRF-CEM it was > 100 µM (inactive); in the experiment on HCC 2998 it was 29 µM (inactive). Besides, the GI50 is 22.9 µM (inactive) in the experiment with EKVX; 29.2 µM (inactive) with OVCAR-8; 22.8 µM in the experiment on HCT-15; 27.2 µM (inactive) in the experiment on KM12; 16.6 µM (inactive) with SK-MEL-28; 32.6 µM (inactive) in the experiment with MDA-MB-435. Also, the GI50 with A498 was 3.91 µM (inactive).

`CC(=O)Oc1ccc2c(c1OC(C)=O)CCC1C2=CC[C@]2(C)C(=O)CCC12` (stereo partly drawn): the GI50 in the experiment with K562 was 14 µM (inactive); in the experiment with HOP-92, 5.15 µM (inactive); in the experiment with Hs-578T, 19.6 µM (inactive); with HL-60 it was 6.89 µM (inactive); in the experiment with T47D, 9.46 µM (inactive); in the experiment with NCI-H522, 1.82 µM (inactive). Further, the GI50 is 3.18 µM (inactive) in the experiment on SW-620; 15.1 µM (inactive) in the experiment on OVCAR-5; 27.6 µM (inactive) with NCI/ADR-RES; 12.3 µM (inactive) in the experiment on UACC-62; 3.37 µM (inactive) in the experiment on CCRF-CEM; 10.5 µM (inactive) in the experiment with EKVX. For the same compound, the GI50 was 14.3 µM (inactive) in the experiment on OVCAR-8; 10.6 µM in the experiment with HCT-15; 16 µM (inactive) in the experiment with KM12; 9.12 µM (inactive) with SK-MEL-28; 4.45 µM (inactive) in the experiment on MDA-MB-435.

Regarding `Cc1ccc(NCCN(C)C)c2c(=O)c3cc(O)ccc3sc12`, the GI50 was 1.5 µM (inactive) with K562; 2.38 µM (inactive) in the experiment on HOP-92; 0.933 µM (active) in the experiment on Hs-578T; 0.416 µM (active) with HL-60; 7.91 µM (inactive) in the experiment on T47D; 4.33 µM (inactive) in the experiment on NCI-H522. Moreover, the GI50 with SW-620 was 1.19 µM (inactive); in the experiment on OVCAR-5, 15.3 µM (inactive); in the experiment on UACC-62 it was 2.95 µM (inactive); in the experiment with U-251, 1.63 µM (inactive); in the experiment with CCRF-CEM it was 0.284 µM (active); in the experiment on HCC 2998 it was 3.79 µM (inactive). The GI50 with EKVX was 12.4 µM (inactive); in the experiment with OVCAR-8 it was 2.44 µM (inactive); in the experiment on HCT-15 it was 2.69 µM; with KM12 it was 4.28 µM (inactive); in the experiment with SK-MEL-28, 6.01 µM (inactive); with MDA-MB-435, 1.53 µM (inactive). In addition, in the experiment on A498, the GI50 was 6.79 µM (inactive).

Turning to `COC(=O)N1CC(=O)C(C(=O)NC23CC4CC(CC(C4)C2)C3)C1` (stereo not drawn), the GI50 is 55.2 µM (inactive) with K562; > 100 µM (inactive) in the experiment on HOP-92; 32.1 µM (inactive) in the experiment with HL-60; 47.8 µM (inactive) in the experiment on T47D; 49.3 µM (inactive) with NCI-H522; > 100 µM (inactive) in the experiment on SW-620. Moreover, the GI50 was > 100 µM (inactive) in the experiment with OVCAR-5; 84.1 µM (inactive) in the experiment on NCI/ADR-RES; 69.7 µM (inactive) with UACC-62; 67.3 µM (inactive) with U-251; 42.5 µM (inactive) in the experiment with CCRF-CEM; 37 µM (inactive) with HCC 2998. In addition, the GI50 in the experiment with OVCAR-8 was 73.1 µM (inactive); in the experiment with HCT-15, 39.2 µM; with KM12, 41.8 µM (inactive); with SK-MEL-28 it was 66.4 µM (inactive); in the experiment on MDA-MB-435 it was > 100 µM (inactive); in the experiment on A498, > 100 µM (inactive).

With `CN(C)C(=O)C(F)(F)C(c1ccccc1Br)C1C(=O)N(C)C(=O)N(C)C1=O` (stereo not drawn), the GI50 in the experiment on K562, with HOP-92, in the experiment with T47D, in the experiment with SW-620, with OVCAR-5 and in the experiment on NCI/ADR-RES was > 100 µM (inactive) each time. Besides, the GI50 in the experiment with UACC-62, in the experiment with U-251, in the experiment with CCRF-CEM, in the experiment on HCC 2998, with EKVX and with OVCAR-8 was > 100 µM (inactive) in each case. The GI50 in the experiment on HCT-15 was greater than 100 µM; in the experiment on KM12, > 100 µM (inactive); in the experiment on SK-MEL-28 it was > 100 µM (inactive); with MDA-MB-435 it was > 100 µM (inactive); in the experiment on A498 it was > 100 µM (inactive).

For `CC(=O)OC12c3ccccc3C(c3ccccc31)C1C(=O)N(c3ccccn3)C(=O)C12` (stereo not drawn), the GI50 in the experiment on K562 is 39.1 µM (inactive); with Hs-578T, 14.3 µM (inactive); in the experiment on HL-60, 33.5 µM (inactive); in the experiment with T47D, 53.3 µM (inactive); with SW-620, > 100 µM (inactive); in the experiment with OVCAR-5 it was > 100 µM (inactive). The GI50 in the experiment with NCI/ADR-RES was 55.2 µM (inactive); with UACC-62 it was 91.6 µM (inactive); in the experiment on U-251, > 100 µM (inactive); in the experiment with CCRF-CEM it was 57.1 µM (inactive); in the experiment on HCC 2998 it was 72.6 µM (inactive); in the experiment on EKVX, > 100 µM (inactive). The GI50 in the experiment with OVCAR-8 is > 100 µM (inactive); in the experiment with HCT-15, 69.3 µM; with KM12 it was 50.1 µM (inactive); with SK-MEL-28 it was 85.9 µM (inactive).

With `O=C(O)/C(Cl)=C(/Cl)C(=O)Nc1cccc(Cl)c1`, the GI50 is 6.43 µM (inactive) with K562; 14.6 µM (inactive) in the experiment on HOP-92; 24.8 µM (inactive) in the experiment with Hs-578T; 8.91 µM (inactive) in the experiment on HL-60; 22 µM (inactive) in the experiment on T47D; 4.35 µM (inactive) with NCI-H522. Also, the GI50 in the experiment with SW-620 was 12.6 µM (inactive); in the experiment with OVCAR-5 it was 19.7 µM (inactive); with UACC-62, 16.8 µM (inactive); with U-251, 28 µM (inactive); in the experiment on CCRF-CEM, 5.87 µM (inactive); in the experiment on HCC 2998, 17.5 µM (inactive). Also, the GI50 in the experiment with EKVX was 17.9 µM (inactive); in the experiment on OVCAR-8 it was 18.7 µM (inactive); in the experiment on HCT-15, 16.6 µM; in the experiment on KM12, 20.8 µM (inactive); with SK-MEL-28, 17.9 µM (inactive); in the experiment with MDA-MB-435, 19.2 µM (inactive). Moreover, in the experiment on A498, the GI50 was > 64.1 µM (inactive).

`CC1CC/C(=C\c2ccc(N(C)C)cc2)C(=O)/C1=C/c1ccc(N(C)C)cc1` (stereo not drawn): the GI50 in the experiment on K562, with T47D, in the experiment on NCI-H522, with SW-620, with OVCAR-5 and with NCI/ADR-RES was > 100 µM (inactive) in each case. Also, the GI50 in the experiment with UACC-62, in the experiment with U-251, in the experiment with CCRF-CEM, with HCC 2998, in the experiment with EKVX and in the experiment with OVCAR-8 was > 100 µM (inactive) each time. The GI50 in the experiment on HCT-15 is greater than 100 µM; with KM12, > 100 µM (inactive); in the experiment with SK-MEL-28 it was > 100 µM (inactive); with MDA-MB-435, > 100 µM (inactive); with A498, > 100 µM (inactive).

As for `C=CCOC(=O)CC[N+]1=CCC(c2ccccc2)(c2ccccc2)O1`, the GI50 with K562, with HOP-92, in the experiment with Hs-578T, with T47D, in the experiment with NCI-H522 and with SW-620 was > 100 µM (inactive) in each case. In addition, the GI50 with OVCAR-5, with UACC-62, in the experiment on U-251, with HCC 2998, in the experiment with EKVX and in the experiment with OVCAR-8 was > 100 µM (inactive) each time. For the same compound, the GI50 in the experiment with HCT-15 is greater than 100 µM; in the experiment on KM12, > 100 µM (inactive); with SK-MEL-28 it was > 100 µM (inactive); with MDA-MB-435 it was > 100 µM (inactive); in the experiment on A498 it was > 100 µM (inactive).

Consider `O=C(/C=C/c1ccccc1)Oc1ccc(C(=O)/C=C/c2ccc(Cl)cc2)cc1`, for which the GI50 with K562 was 87.3 µM (inactive); in the experiment on HL-60 it was 71.1 µM (inactive); in the experiment with T47D it was 66.7 µM (inactive); with SW-620, > 100 µM (inactive); with OVCAR-5, > 100 µM (inactive); in the experiment with NCI/ADR-RES, 46.5 µM (inactive). For the same compound, the GI50 was > 100 µM (inactive) in the experiment on UACC-62; 20.7 µM (inactive) in the experiment on U-251; 17.4 µM (inactive) with CCRF-CEM; 41.3 µM (inactive) with HCC 2998; > 100 µM (inactive) in the experiment with EKVX; 42.3 µM (inactive) with OVCAR-8. Moreover, the GI50 with KM12 was 33.8 µM (inactive); in the experiment with SK-MEL-28, > 100 µM (inactive); with MDA-MB-435 it was 25.1 µM (inactive); with A498, > 100 µM (inactive).

For `CC(C)C[C@H](NC(=O)[C@H](Cc1ccccc1)NC(=O)c1cnccn1)B(O)O` [BORTEZOMIB], the GI50 with K562, in the experiment with HOP-92, in the experiment with HL-60, in the experiment on T47D, with NCI-H522 and in the experiment on SW-620 was < 0.01 µM (active) each time. Further, the GI50 is < 0.01 µM (active) in the experiment on OVCAR-5; 0.0141 µM (active) with NCI/ADR-RES; < 0.01 µM (active) with UACC-62; < 0.01 µM (active) in the experiment on U-251; < 0.01 µM (active) in the experiment with HCC 2998; < 0.01 µM (active) in the experiment on EKVX. Moreover, the GI50 in the experiment with OVCAR-8 is < 0.01 µM (active); in the experiment on HCT-15 it was less than 0.01 µM; in the experiment on KM12 it was < 0.01 µM (active); in the experiment with SK-MEL-28, < 0.01 µM (active); in the experiment with MDA-MB-435 it was < 0.01 µM (active); in the experiment with A498, < 0.01 µM (active).

The values are drawn from ChEMBL document CHEMBL1201862, “PubChem BioAssay data set” (2004).
